Measurements reported in ChEMBL document CHEMBL4419169, “Novel Ferroportin Inhibitors” (2018).
Activity calls are given as the source filed them. The calls are words filed in the database; no cut-off is given here.

Columns and labels:
Ferroportin [1] = molecular target: T1, Ferroportin (Homo sapiens, UniProt Q9NP59); test: Inhibition of GFP-tagged human ferroportin expressed in HEK293 #354 cells assessed as reduction in Fpn-mediated iron efflux incubated overnight by iron regulatory element -driven beta-lactamase reporter gene assay; format: cell-based
T1 sequence (Q9NP59 whole entry): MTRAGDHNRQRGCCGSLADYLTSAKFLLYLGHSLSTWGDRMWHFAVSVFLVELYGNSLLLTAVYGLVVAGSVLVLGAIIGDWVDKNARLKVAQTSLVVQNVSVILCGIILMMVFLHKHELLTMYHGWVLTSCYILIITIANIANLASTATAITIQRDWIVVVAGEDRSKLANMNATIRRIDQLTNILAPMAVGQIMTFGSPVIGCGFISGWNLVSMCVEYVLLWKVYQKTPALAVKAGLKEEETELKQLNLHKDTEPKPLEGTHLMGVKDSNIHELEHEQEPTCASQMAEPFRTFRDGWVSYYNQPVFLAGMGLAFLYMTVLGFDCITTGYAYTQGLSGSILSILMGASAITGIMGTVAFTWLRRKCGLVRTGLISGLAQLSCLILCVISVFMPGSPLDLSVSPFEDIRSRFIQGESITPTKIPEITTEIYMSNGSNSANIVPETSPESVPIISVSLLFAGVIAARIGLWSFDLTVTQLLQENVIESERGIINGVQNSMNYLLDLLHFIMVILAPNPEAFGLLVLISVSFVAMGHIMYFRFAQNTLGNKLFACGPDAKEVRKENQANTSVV

Ferroportin [2] = molecular target: T2, Ferroportin (Mus musculus, UniProt Q9JHI9); test: Inhibition of ferroportin in mouse J774 cells assessed as reduction in binding of hepcidin to ferroportin pre-incubated for 15 mins before TMR-hepcidin addition and further incubated for 2 hrs by fluorescence based hepcidin internalization assay; format: cell-based
T2 sequence (Q9JHI9 whole entry): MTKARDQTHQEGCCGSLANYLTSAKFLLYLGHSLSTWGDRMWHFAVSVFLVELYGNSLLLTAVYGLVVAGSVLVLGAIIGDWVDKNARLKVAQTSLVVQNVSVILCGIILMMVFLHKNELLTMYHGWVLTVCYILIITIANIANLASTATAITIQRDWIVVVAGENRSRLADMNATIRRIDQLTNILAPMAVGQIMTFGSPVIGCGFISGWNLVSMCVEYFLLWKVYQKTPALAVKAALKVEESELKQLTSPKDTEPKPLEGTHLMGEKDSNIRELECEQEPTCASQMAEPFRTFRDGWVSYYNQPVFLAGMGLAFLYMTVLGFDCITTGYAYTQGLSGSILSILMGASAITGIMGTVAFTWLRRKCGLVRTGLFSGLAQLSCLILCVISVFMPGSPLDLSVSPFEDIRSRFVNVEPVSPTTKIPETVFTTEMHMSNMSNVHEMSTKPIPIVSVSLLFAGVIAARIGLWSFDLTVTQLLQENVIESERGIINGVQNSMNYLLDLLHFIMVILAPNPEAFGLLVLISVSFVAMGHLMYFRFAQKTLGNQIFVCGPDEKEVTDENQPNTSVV

Ferroportin [3] = molecular target: T1, Ferroportin; test: Inhibition of GFP-tagged human ferroportin expressed in HEK293 #354 cells assessed as induction of ferroportin internalization and degradation incubated overnight by FACS assay; format: cell-based; conditions: read-out: EC50 (the source's name)
Mus musculus [4] = test: Induction of hypoferremia in wild type C57BL/6 mouse assessed as decrease in serum iron levels at 100 mg/kg, po measured after 3 hrs post dose; format: functional; design: scale not given: the % may be the effect or the level left
Mus musculus [5] = test: Induction of hypoferremia in wild type C57BL/6 mouse assessed as decrease in serum iron levels at 30 mg/kg, po measured after 3 hrs post dose; format: functional; design: scale not given: the % may be the effect or the level left
Mus musculus [6] = test: Prevention of hyperferremia in iron overloaded beta2-microglobulin deficient male mouse assessed as reduction in serum iron level at 60 mg/kg, po measured after 1 hr relative to control; format: functional; design: scale not given: the % may be the effect or the level left
Mus musculus [7] = test: Disease modifying capacity in mouse model of transfusion-independent beta-thalassemia intermedia assessed as increase in blood erythrocyte counts at 20 mg/kg, po BID for 46 days relative to control; format: functional
Mus musculus [8] = test: Disease modifying capacity in mouse model of transfusion-independent beta-thalassemia intermedia assessed as prevention of liver [58Fe] loading at 20 mg/kg, po BID for 46 days relative to control; format: functional
Mus musculus [9] = test: Prevention of hyperferremia in iron overloaded beta2-microglobulin deficient mouse assessed as reduction in serum iron level at 50 mg/kg, po measured after 3 hrs relative to control; format: functional, organism-based
Mus musculus [10] = test: Prevention of iron overload in beta2-microglobulin deficient male mouse assessed as reduction in [58Fe] liver iron accumulation at 60 mg/kg, po BID pre-dosed followed by exposure to iron-containing water and same regime was repeated for 14 days relative to control; format: functional; design: scale not given: the % may be the effect or the level left
Mus musculus [11] = test: Prevention of iron overload in beta2-microglobulin deficient male mouse assessed as increase in spleen iron accumulation at 60 mg/kg, po BID pre-dosed followed by exposure to iron-containing water and same regime was repeated for 14 days relative to control; format: functional
Mus musculus [12] = test: Disease modifying capacity in mouse model of transfusion-independent beta-thalassemia intermedia assessed as prevention of liver [58Fe] loading at 60 mg/kg, po BID for 46 days relative to control; format: functional
Mus musculus [13] = test: Disease modifying capacity in mouse model of transfusion-independent beta-thalassemia intermedia assessed as increase in hematocrit levels at 20 mg/kg, po BID for 46 days relative to control; format: functional
[14] = molecular target: T3, Ferroportin (Mus musculus) (UniProt Q9JHI9); test: Inhibition of ferroportin in mouse J774 cells assessed as induce ferroportin ubiquitination and degradation at […] incubated for 120 mins by immunoprecipitation assay; format: cell-based
T3 sequence (whole entry): T2 sequence (Q9JHI9 whole entry)

Mus musculus [15] = test: Prevention of iron overload in beta2-microglobulin deficient male mouse assessed as reduction in total liver iron accumulation at 60 mg/kg, po BID pre-dosed followed by exposure to iron-containing water and same regime was repeated for 14 days relative to control; format: functional; design: scale not given: the % may be the effect or the level left
Mus musculus [16] = test: Disease modifying capacity in mouse model of transfusion-independent beta-thalassemia intermedia assessed as decrease in blood reticulocyte counts at 20 mg/kg, po BID for 46 days relative to control; format: functional; design: scale not given: the % may be the effect or the level left
Mus musculus [17] = test: Induction of hypoferremia in wild type C57BL/6 mouse assessed as decrease in serum iron levels at 10 mg/kg, po measured after 3 hrs post dose; format: functional; design: scale not given: the % may be the effect or the level left
Mus musculus [18] = test: Prevention of iron overload in beta2-microglobulin deficient female mouse assessed as increase in spleen iron accumulation at 60 mg/kg, po BID pre-dosed followed by exposure to iron-containing water and same regime was repeated for 14 days relative to control; format: functional
Mus musculus [19] = test: Disease modifying capacity in mouse model of transfusion-independent beta-thalassemia intermedia assessed as decrease in [58Fe] spleen iron content at 60 mg/kg, po BID for 46 days relative to control; format: functional; design: scale not given: the % may be the effect or the level left
Mus musculus [20] = test: Correction of anemia in mouse model of transfusion-independent beta-thalassemia intermedia assessed as hemoglobin levels at 60 mg/kg, po BID for 46 days and measured at day 20 to 48 (reference value: 70 to 80 g/L); format: functional
Mus musculus [21] = test: Disease modifying capacity in mouse model of transfusion-independent beta-thalassemia intermedia assessed as decrease in [58Fe] spleen iron content at 20 mg/kg, po BID for 46 days relative to control; format: functional; design: scale not given: the % may be the effect or the level left
[22] = molecular target: T3, Ferroportin (Mus musculus); test: Inhibition of ferroportin in mouse J774 cells assessed as induce ferroportin ubiquitination and degradation at […] incubated for 10 mins by immunoprecipitation assay; format: cell-based
Mus musculus [23] = test: Disease modifying capacity in mouse model of transfusion-independent beta-thalassemia intermedia assessed as decrease in leukocyte counts level at 20 mg/kg, po BID for 46 days relative to control; format: functional; design: scale not given: the % may be the effect or the level left
Rattus norvegicus [24] = test: Prevention of iron absorption in anemic Wistar rat model of iron absorption assessed as inhibition of increase in serum iron at 10 mg/kg, po pre-dosed 1 hr before ferrous sulfate dosing and measured 3 hours after iron dosing; format: functional
Rattus norvegicus [25] = test: Prevention of iron absorption in anemic Wistar rat model of iron absorption assessed as inhibition of increase in serum iron at 30 mg/kg, po pre-dosed 1 hr before ferrous sulfate dosing and measured 3 hours after iron dosing; format: functional
Mus musculus [26] = test: Disease modifying capacity in mouse model of transfusion-independent beta-thalassemia intermedia assessed as decrease in relative spleen weight at 60 mg/kg, po BID for 46 days relative to control; format: functional; design: scale not given: the % may be the effect or the level left
Rattus norvegicus [27] = test: Prevention of iron absorption in anemic Wistar rat model of iron absorption assessed as inhibition of increase in serum iron at 100 mg/kg, po pre-dosed 1 hr before ferrous sulfate dosing and measured 3 hours after iron dosing; format: functional
Mus musculus [28] = test: Disease modifying capacity in mouse model of transfusion-independent beta-thalassemia intermedia assessed as increase in hematocrit levels at 60 mg/kg, po BID for 46 days relative to control; format: functional
Mus musculus [29] = test: Prevention of hyperferremia in iron overloaded beta2-microglobulin deficient female mouse assessed as reduction in serum iron level at 60 mg/kg, po measured after 1 hr relative to control; format: functional; design: scale not given: the % may be the effect or the level left
Mus musculus [30] = test: Disease modifying capacity in mouse model of transfusion-independent beta-thalassemia intermedia assessed as decrease in blood reticulocyte counts at 60 mg/kg, po BID for 46 days relative to control; format: functional; design: scale not given: the % may be the effect or the level left
Mus musculus [31] = test: Prevention of iron overload in beta2-microglobulin deficient female mouse assessed as reduction in [58Fe] liver iron accumulation at 60 mg/kg, po BID pre-dosed followed by exposure to iron-containing water and same regime was repeated for 14 days relative to control; format: functional; design: scale not given: the % may be the effect or the level left
Mus musculus [32] = test: Disease modifying capacity in mouse model of transfusion-independent beta-thalassemia intermedia assessed as increase in blood erythrocyte counts at 60 mg/kg, po BID for 46 days relative to control; format: functional
Mus musculus [33] = test: Prevention of iron overload in beta2-microglobulin deficient female mouse assessed as reduction in total liver iron accumulation at 60 mg/kg, po BID pre-dosed followed by exposure to iron-containing water and same regime was repeated for 14 days relative to control; format: functional; design: scale not given: the % may be the effect or the level left

O=C(NCc1ncccc1F)c1cn(CCNCCc2nc3ccccc3[nH]2)nn1
EC50 (Ferroportin [1]): 170 nM | IC50 (Ferroportin [2]): 11 nM | DC50 (Ferroportin [3]): 69 nM

Cl.Cl.Cl.O=C(NCc1ncccc1F)c1csc(CCNCc2nc3ccccc3[nH]2)n1
Activity (Mus musculus [4]): 50% | Activity (Mus musculus [5]): 30% | Activity (Mus musculus [6]): 10 - 47% | Activity (Mus musculus [7]): 2% | Activity (Mus musculus [8]): 20% | Activity (Mus musculus [9]): Active | Activity (Mus musculus [10]): 81 - 95% | Activity (Mus musculus [11]): 24 - 36% | Activity (Mus musculus [12]): 48% | Activity (Mus musculus [13]): 0% | inhibition [14]: Active | Activity (Mus musculus [15]): 69 - 85% | Activity (Mus musculus [16]): 19% | Activity (Mus musculus [17]): 10% | Activity (Mus musculus [18]): 9 - 85% | Activity (Mus musculus [19]): 51% | Activity (Mus musculus [20]): 13 g/L | Activity (Mus musculus [21]): 19% | inhibition [22]: Active | Activity (Mus musculus [23]): 0% | inhibition in vivo at 10 mg/kg (Rattus norvegicus [24]): 32% | inhibition in vivo at 30 mg/kg (Rattus norvegicus [25]): 53% | Activity (Mus musculus [26]): 48% | inhibition in vivo at 100 mg/kg (Rattus norvegicus [27]): 97% | Activity (Mus musculus [28]): 1% | Activity (Mus musculus [29]): 32 - 58% | Activity (Mus musculus [30]): 43% | Activity (Mus musculus [31]): 67 - 80% | Activity (Mus musculus [32]): 22% | Activity (Mus musculus [33]): 66 - 67%
